Data from patent publication US5770595A, “Oxime substituted therapeutic compounds” (Cell Therapeutics, Inc., priority 1994, dated 1998).

Key:
L929 cells = assay: TNF-α-mediated cytotoxicity in L929 cells; format: cell-based, murine; details: human TNF-α 300 pg/ml; FIG. 9
Experimental: An inventive compound can be assayed for activity protecting TNF-mediated cytotoxicity. In this assay, L929 murine fibroblast cells (10^4 cells per well) are incubated with either compounds at varying doses and media control for two hrs. […] The cells plus (or minus) drug plus TNF were incubated for 40 hrs at 37° C. The media is removed and replaced with fresh media containing 2% serum and 10 μg/ml of BCECF fluorescent dye and incubated for 30 min. The fluorescent dye-containing media is removed and replaced with PBS (phosphate buffered saline) and each well was assayed for fluorescence.
This assay is a model for septic shock. L929 cells (10^5) were treated with human TNF-α at 300 pg/ml in RPMI media containing 10% fetal calf serum with or without compound no. One day later, the cells were stained for viability using the fluorescent dye BCECF and fluorescence of the samples was analyzed using a Milipore plate reader.

P388D1 cells [1] = assay: IL-1α release from LPS-stimulated P388D1 cells; format: cell-based, murine; details: 0.25 mM, LPS 10 μg/ml
Experimental: This example illustrates the ability of inventive compound no. 1521 to inhibit IL-1α release from P388D1 cells when stimulated with LPS. This assay is a model for septic shock. P388D1 cells (10^5) were treated with LPS at 10 μg/ml in RPMI media containing 10% fetal calf serum. Supernatants were assayed for IL-1α by an ELISA technique at various times following LPS stimulation. The cells were treated one hour prior to LPS stimulation with 0.25 mM of compound no. 1521.

murine thymocyte = assay: thymocyte proliferation stimulated by ConA and IL-1α; format: cell-based, murine (female Balb/C mice); details: ConA 0.25 μg/ml, IL-1α 12.5 ng/ml; drug 2 h prior
Experimental: A thymocyte costimulator assay is conducted to evaluate the inventive compounds to inhibit activation and proliferation of thymocytes caused by stimulation with Con A and interleukin-1 (IL-1), or […]. Thymuses are obtained from mice (e.g., female Balb/C mice) and the thymuses are removed and dissociated into culture media (e.g., RPMI 1640 without serum supplementation). The dissociated thymus tissue and cell suspension is transferred to centrifuge tubes and allowed to settle, washed with HBSS and resuspended in serum-supplemented culture media (e.g., RPMI 1640 with 10% fetal calf serum). Any contaminating red cells are lysed, and viable cells are resuspended and counted. Thymocytes are plated (e.g., 96-well plates at a density of 2×10^5 cells/well) and a stimulating agent, such as Con A, IL-1 (e.g., IL-1α) or IL-2 is added to the well. The cells are incubated for 4 days at 37° C. On the fourth day, the cells are pulsed with tritiated thymidine and cell proliferation determined. […]
1521 on inhibition of murine thymocyte proliferation stimulated by Concanavalin A (ConA) and interleukin-I alpha (IL-1α). Thymuses were obtained from normal, female Balb/C mice. The thymuses were dissociated and plated into 96-well plates at a density of 2×10^5 cells/well. […] The cells were harvested and incorporated tritiated thymidine was determined in a liquid scintillation counter. […]

[2] = system: murine peritoneal macrophages; assay: TNF-α release from LPS-stimulated murine peritoneal macrophages; format: cell-based; details: 0.25 mM, LPS 10 μg/ml
Experimental: (§1) This example illustrates the ability of inventive compound no. 1521 to inhibit TNF-α release from murine peritoneal macrophages when stimulated with LPS. This assay is a model for septic shock. Macrophages (10^5) were treated with LPS at 10 μg/ml in RPMI media containing 10% fetal calf serum. Supernatants were assayed for TNF by an ELISA technique at various times following LPS stimulation. The cells were treated one hour prior to LPS stimulation with 0.25 mM of inventive compound no. 1521.

[3] = system: murine peritoneal macrophages; assay: IL-1α release from LPS-stimulated murine peritoneal macrophages; format: cell-based; details: 0.25 mM, LPS 10 μg/ml
Experimental: as §1, with “IL-1α” for “TNF-α”, “IL-1α” for “TNF”, “mM” for “mM of inventive compound no.”

P388D1 cells [4] = assay: TNF-α release from LPS-stimulated P388D1 cells; format: cell-based, murine; details: 0.25 mM, LPS 10 μg/ml
Experimental: as §1, with “of” for “of inventive”, “from P388D1 cells (a” for “from”, “monocyte/macrophage line)” for “peritoneal macrophages”, “P388D1 cells” for “Macrophages”, “mM” for “mM of inventive”

[5] = system: MCF-7, Hurdlich, RAS and NIH-3T3 cells; assay: cytotoxicity on several cell lines (BCECF viability); format: cell-based; details: 24 hours; FIG. 13
Experimental: Each inventive compound is investigated for cytotoxicity to determine appropriate doses for biological activity assays and to prevent cytotoxic reactions in in vitro assays when characterizing activity. Cells (e.g., NIH-3T3, Ras transformed 3T3 cells, malignant melanoma LD2 cells, etc.) are added to microtiter plates and drug is added about two days after plating. Cell viability is determined using a fluorescent viability slain (e.g., 2',7'-bis-(2-carboroxyethyl)-5-(and -6)-carboxyfluorescein acetoxymethyl ester, BCECF excitation 488 nm and emission 525 nm) 24, 48 or 72 hours after addition of the drug.
1522 is not cytotoxic to several cell lines. The cells lines used were MCF-7 a human breast cancer-derived line, Hurdlich cells a human stromal derived line, RAS a codon-12 transformed malignant murine line, and NIH-3T3 a non-Ras transformed parent line of RAS. The cells were treated with various concentrations of drug, and 24 hours later, stained for viability using BCECF and analyzed for fluorescent die uptake (indicating viable cells) using a fluorescence plate reader.

SMILES	protection of L929 cells from TNF-induced cytotoxicity (L929 cells)	inhibition of IL-1α release (P388D1 cells [1])	inhibition of thymocyte proliferation, ConA + IL-1α (murine thymocyte)	inhibition of TNF-α release [2]	inhibition of IL-1α release [3]	inhibition of TNF-α release (P388D1 cells [4])	cytotoxicity (viability by BCECF) [5]
CC(CCCCn1c(=O)c2c(ncn2C)n(C)c1=O)=NO [Compound no. 1521]	inhibited TNF-induced cytotoxicity in a dose dependent manner	inhibited IL-1α release	inhibited thymocyte proliferation in a dose-response manner	inhibited TNF release	inhibited IL-1α release	inhibited TNF release	
CON=C(C)CCCCn1c(=O)c2c(ncn2C)n(C)c1=O [Compound no. 1522]			inhibited thymocyte proliferation				non-toxic at therapeutic concentrations
